{
  "source": "patent US20250134667A1",
  "about": "“BIOABSORBABLE AND PHOTOCURABLE COMPOSITION, BIOABSORBABLE GUIDED TISSUE REGENERATION COMPOSITION, AND GRAFTING METHOD USING SAME” (priority 2022, published 2025)",
  "key": {"[1]": {"test_system": "plkBa", "experiment": "Western blot of plkBa in Raw264.7 cells", "assay_type": "cell-based, mouse", "details": "only the peptide, no LPS", "method": "(§1) Raw264.7 cells were purchased from ATCC (American Type Culture Collection) and used in the experiment. Raw264.7 cells were cultured in a CO2 incubator at 37° C. supplied with 5% CO2 and 95% air using DMEM (Dulbecco's modified Eagle medium) medium supplemented with 10% FBS and 100 units/ml antibiotics (penicillin-streptomycin).\n(§2) Raw264.7 cells were treated with 200 μM of the peptide having the amino acid sequence of SEQ ID NO: 1 for 30 minutes, and then treated with 1 μg/ml LPS (lipopolysaccharide, Merck, L3024). After 8 hours, the treated cells were collected, protease inhibitor cocktail and phosphatase inhibitor cocktail were added to Radioimmunoprecipitation assay buffer (RIPA buffer solution, Thermo Fisher, 89900), and the cells were treated to lyse the cells. After centrifuging the cell lysate and collecting the supernatant, the concentration of the cell lysate was measured using a bicinchoninic acid assay (BCA assay, Thermo Fisher, 23227), and RIPA buffer solution was added thereto to prepare the cell lysate to a final concentration of 5 mg/mL. Then, it was mixed with a buffer solution including 1 M Tris-HCl (pH 6.8), 50% glycerol, and 10% SDS in a 4:1 ratio, and then sodium dodecyl sulfate-poly acrylamide gel electrophoresis (SDS-PAGE) was performed. […]"}, "[2]": {"test_system": "pNFκB", "experiment": "Western blot of pNFkB in Raw264.7 cells", "assay_type": "cell-based, mouse", "details": "only the peptide, no LPS", "method": "as §1\nas §2, with “Raw264.7 cells were treated with 200 μM of the peptide having the amino acid sequence of SEQ ID NO: 1 for 30 minutes, and then treated with 1 μg/ml LPS (lipopolysaccharide, Merck, L3024).” left out"}, "[3]": {"test_system": "gingival tissue of a rabbit", "experiment": "Tissue penetration ability in animal tissue, rabbit", "assay_type": "in vivo", "details": "living rabbit", "method": "(§3) The amine group of the peptide having the amino acid of SEQ ID NO: 1 was labeled with fluorescence using Alexa Fluor™ 680 NHS Ester (Thermo Fisher, A20008). The fluorescent labeling method followed the method provided by the manufacturer. The fluorescently labeled peptide was dissolved in water for injection at a concentration of 250 mg/ml, and 10 μL was injected into the gingival sulcus of the premolars of an adult dog (beagle dog) and the anterior gingival sulcus of a rabbit. After 2 hours, to check the permeability of the peptide in the tissue, the animal was sacrificed, the gingival tissue was collected, and tissues were embedded using Tissue-Tek® O.C.T. Compound (Sakura Finetek, 4583). After sectioning the embedded tissue at 10 μm thickness, fluorescently labeled peptides were confirmed using a confocal scanning fluorescence microscope. The nuclei of tissue cells were stained using DAPI."}, "[4]": {"test_system": "Raw264.7 cells", "experiment": "Cell penetration ability at the cellular level (confocal microscopy)", "assay_type": "cell-based, mouse", "details": "50, 100, 200 μM, 1 hour", "method": "The N-terminus of the peptide having the amino acid of SEQ ID NO: 1 prepared in Example 1 was fluorescently labeled with Rhodamine B (Tokyo chemical industry Co., LTD., A5102). Raw264.7 cells were distributed 3×10^4 each into a 4-well chamber and cultured in DMEM medium for 24 hours to stabilize the cells. After 24 hours, fluorescently labeled peptide was added to the medium at concentrations of 50, 100, and 200 μM. After 1 hour of peptide treatment, a degree of penetration of the peptide into cells was observed using a confocal scanning fluorescence microscope […]. Cell nuclei were stained using 4′,6-diamidino-2-phenylindole (DAPI, Thermo Fisher, D1306). DIC represents the case observed under a general microscope, Nuceli represents the nucleus of a cell, Peptide represents the degree of penetration of a peptide bound to rhodamine B, and MERGE represents an image that overlaps images of DIC, Nuclei, and the penetrated peptide."}, "[5]": {"test_system": "gingival tissue of an adult dog", "experiment": "Tissue penetration ability in animal tissue, adult dog", "assay_type": "in vivo, adult dog (beagle dog)", "method": "as §3"}},
  "note": "Peptide text beside a SMILES is read from it.",
  "data": [
    {"smiles": "C[C@@H](O)[C@H](NC(=O)[C@H](CO)NC(=O)[C@H](CS)NC(=O)[C@H](CCCCN)NC(=O)CN)C(=O)N[C@@H](CCCNC(=N)N)C(=O)NCC(=O)N[C@@H](CCCNC(=N)N)C(=O)N[C@@H](CCCCN)C(=O)N[C@@H](CO)C(=O)N[C@@H](CO)C(=O)N[C@@H](CCCNC(=N)N)C(=O)N[C@@H](CCCNC(=N)N)C(=O)N[C@@H](CCCCN)C(=O)N[C@@H](CCCCN)C(N)=O", "note": "[SEQ ID NO: 1, GKCSTRGRKSSRRKK] (H-GKCSTRGRKSSRRKK-NH2; N-terminus and C-terminus assumed)", "values": [
      {"measurement": "expression of plkBa, peptide only", "setting": "[1]", "value": "no effect"},
      {"measurement": "expression of pNFκB, peptide only", "setting": "[2]", "value": "no effect"},
      {"measurement": "penetration into gingival tissue (in words)", "setting": "[3]", "value": "penetrated"},
      {"measurement": "concentration dependence of intracellular fluorescence", "setting": "[4]", "value": "as the concentration of peptide increased, the intensity of fluorescence also increased"},
      {"measurement": "penetration into gingival tissue (in words)", "setting": "[5]", "value": "penetrated"}
    ]}
  ]
}
